Measured values reported in patent publication US20240158418A1 (C4 Therapeutics, Inc., priority 2021, published 2024).
Where two headings read alike, the source gives them in different places.

Tests used:
Type in all cases: cell-based
EGFR L858R = EGFR L858R (Homo sapiens, UniProt P00533, L858R); assay: EGFR degradation, Total EGFR (L858R-specific) HTRF, NCI-H3255; design: NCI-H3255 (harboring EGFR heterozygous L858R mutation); host or cells: NCI-H3255; details: Table 9A; NCI-H3255 cells, 6 hours, Total EGFR HTRF; read-out: H3255 EGFR DC50
Method in brief: (§1)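 FRET signal from HTRF kits measured phospho-EGFR at pY1068 or total EGFR after 6 h treatment at 37 °C. Compounds ran as 11-point half-log dilutions from 10 μM in duplicate, in cells in phenol red-free RPMI with 10% FBS. Concentrations giving 50% inhibition or degradation were reported as IC50 or DC50.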

EGFR L858R-T790M = target: T1, EGFR L858R-T790M (Homo sapiens, UniProt P00533, L858R/T790M); assay: EGFR degradation, Total EGFR (L858R-specific) HTRF, NCI-H1975; details: NCI-H1975 cells, 6 hours, Total EGFR HTRF, read-out: H1975 EGFR DC50
T1 construct: NCI-H1975 (harboring EGFR heterozygous L858R-T790M mutations); host or cells: NCI-H1975
Method in brief: as §1

EGFR L858R-T790M-C797S = target: T2, EGFR L858R-T790M-C797S (Homo sapiens, UniProt P00533, C797S/L858R/T790M); assay: EGFR degradation, Total EGFR (L858R-specific) HTRF, NCI-H1975+CS; details: 6 hours, Total EGFR HTRF
T2 construct: generated using CRISPR technology to introduce the additional C797S mutation by Horizon Discovery; host or cells: NCI-H1975+CS (CRISPR knock-in of C797S)
Source text: NCI-H1975 (harboring EGFR heterozygous L858R-T790M mutations) and NCI-H3255 (harboring EGFR heterozygous L858R mutation) were purchased from ATCC and NCI, respectively. NCI-H1975+CS (harboring EGFR heterozygous L858R-T790M-C797S mutations) was generated using CRISPR technology to introduce the additional C797S mutation by Horizon Discovery. A431 (harboring EGFR wildtype) was purchased from ATCC. RPMI 1640 no-phenol red medium and fetal bovine serum (FBS) were purchased from Gibco (Grand Island, NY, USA). Cell culture flasks and 384-well microplates were acquired from VWR (Radnor, PA, USA). Phosphorylated (pY1068) EGFR and Total EGFR (using L858R-specific detection antibody and pan-EGFR antibody for EGFR mutant cell lines and EGFR wild-type cell lines, respectively) HTRF assay kits were purchased from Cisbio (Bedford, MA, USA).
Degradation of EGFR protein containing L858R mutation or wild-type was determined based on quantification of FRET signal using a Total EGFR (L858R-specific or pan-EGFR detecting) HTRF assay kit. Phospho-EGFR (pEGFR) inhibition was determined based on quantification of FRET signal using a pY1068 EGFR HTRF assay kit. In separate assay plates, test compounds were added to the 384-well plate from a top concentration of 10 μM with 11 points, half log titration in duplicates. For each assay, 12.5 uL of cells suspended in assay media (RPMI 1640 no-phenol red medium+10% FBS) at cell densities indicated for each cell line in Table 8 below were dispensed using a multi-channel pipette to 384-well low volume white HTRF microplates containing a duplicate concentration range of test compounds and DMSO controls. The plates were kept at 37° C. with 5% CO2 for 6 hours and then incubated with either phospho EGFR or Total EGFR HTRF detection antibodies according to the cell line and EGFR mutant being assayed. Cells treated in the absence of the test compound were the negative control. Positive control was set by wells containing all reagents but no cells. FRET signal was acquired on EnVision™ Multilabel Reader (PerkinElmer, Santa Clara, CA, USA). Compound concentration that achieves 50% degradation and inhibition was reported as DC50 and IC50, respectively.

[1] = Table 9A, NCI-H1975+CS cells, read-out: H1975+ CS EGFR DC50
[2] = Table 9B, NCI-H1975 C797S clone, read-out: H1975 C797S clone EGFR DC50

T2 sequence (P00533 25-1210 T790M/C797S/L858R): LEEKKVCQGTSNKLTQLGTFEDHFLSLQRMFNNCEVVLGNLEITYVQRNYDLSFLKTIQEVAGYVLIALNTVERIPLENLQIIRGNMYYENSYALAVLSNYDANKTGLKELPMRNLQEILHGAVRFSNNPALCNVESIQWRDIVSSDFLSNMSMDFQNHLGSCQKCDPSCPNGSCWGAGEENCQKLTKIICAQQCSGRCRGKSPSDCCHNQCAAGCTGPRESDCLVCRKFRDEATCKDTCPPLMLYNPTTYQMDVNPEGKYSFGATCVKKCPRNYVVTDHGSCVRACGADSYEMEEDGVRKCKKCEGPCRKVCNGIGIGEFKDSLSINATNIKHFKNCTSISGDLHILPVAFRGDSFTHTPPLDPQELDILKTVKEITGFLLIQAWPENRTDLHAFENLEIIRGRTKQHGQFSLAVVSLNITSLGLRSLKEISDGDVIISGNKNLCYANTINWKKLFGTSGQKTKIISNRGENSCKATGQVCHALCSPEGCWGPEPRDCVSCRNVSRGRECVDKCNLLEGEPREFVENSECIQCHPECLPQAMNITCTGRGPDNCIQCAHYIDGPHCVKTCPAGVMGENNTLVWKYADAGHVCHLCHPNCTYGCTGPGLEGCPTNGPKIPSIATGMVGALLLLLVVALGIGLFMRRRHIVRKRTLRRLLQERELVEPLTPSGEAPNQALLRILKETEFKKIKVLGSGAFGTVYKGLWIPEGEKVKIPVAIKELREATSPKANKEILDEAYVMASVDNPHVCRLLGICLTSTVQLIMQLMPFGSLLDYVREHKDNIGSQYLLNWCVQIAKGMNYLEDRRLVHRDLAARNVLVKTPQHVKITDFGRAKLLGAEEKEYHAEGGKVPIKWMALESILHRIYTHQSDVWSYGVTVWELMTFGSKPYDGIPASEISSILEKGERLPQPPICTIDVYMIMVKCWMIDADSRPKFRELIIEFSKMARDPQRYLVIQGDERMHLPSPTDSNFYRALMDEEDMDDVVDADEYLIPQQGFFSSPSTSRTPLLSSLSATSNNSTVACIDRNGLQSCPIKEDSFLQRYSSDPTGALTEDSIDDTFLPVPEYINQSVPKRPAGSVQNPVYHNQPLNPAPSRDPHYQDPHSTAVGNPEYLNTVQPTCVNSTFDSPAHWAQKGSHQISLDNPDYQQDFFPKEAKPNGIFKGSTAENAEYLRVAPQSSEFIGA
T1 sequence (P00533 25-1210 T790M/L858R): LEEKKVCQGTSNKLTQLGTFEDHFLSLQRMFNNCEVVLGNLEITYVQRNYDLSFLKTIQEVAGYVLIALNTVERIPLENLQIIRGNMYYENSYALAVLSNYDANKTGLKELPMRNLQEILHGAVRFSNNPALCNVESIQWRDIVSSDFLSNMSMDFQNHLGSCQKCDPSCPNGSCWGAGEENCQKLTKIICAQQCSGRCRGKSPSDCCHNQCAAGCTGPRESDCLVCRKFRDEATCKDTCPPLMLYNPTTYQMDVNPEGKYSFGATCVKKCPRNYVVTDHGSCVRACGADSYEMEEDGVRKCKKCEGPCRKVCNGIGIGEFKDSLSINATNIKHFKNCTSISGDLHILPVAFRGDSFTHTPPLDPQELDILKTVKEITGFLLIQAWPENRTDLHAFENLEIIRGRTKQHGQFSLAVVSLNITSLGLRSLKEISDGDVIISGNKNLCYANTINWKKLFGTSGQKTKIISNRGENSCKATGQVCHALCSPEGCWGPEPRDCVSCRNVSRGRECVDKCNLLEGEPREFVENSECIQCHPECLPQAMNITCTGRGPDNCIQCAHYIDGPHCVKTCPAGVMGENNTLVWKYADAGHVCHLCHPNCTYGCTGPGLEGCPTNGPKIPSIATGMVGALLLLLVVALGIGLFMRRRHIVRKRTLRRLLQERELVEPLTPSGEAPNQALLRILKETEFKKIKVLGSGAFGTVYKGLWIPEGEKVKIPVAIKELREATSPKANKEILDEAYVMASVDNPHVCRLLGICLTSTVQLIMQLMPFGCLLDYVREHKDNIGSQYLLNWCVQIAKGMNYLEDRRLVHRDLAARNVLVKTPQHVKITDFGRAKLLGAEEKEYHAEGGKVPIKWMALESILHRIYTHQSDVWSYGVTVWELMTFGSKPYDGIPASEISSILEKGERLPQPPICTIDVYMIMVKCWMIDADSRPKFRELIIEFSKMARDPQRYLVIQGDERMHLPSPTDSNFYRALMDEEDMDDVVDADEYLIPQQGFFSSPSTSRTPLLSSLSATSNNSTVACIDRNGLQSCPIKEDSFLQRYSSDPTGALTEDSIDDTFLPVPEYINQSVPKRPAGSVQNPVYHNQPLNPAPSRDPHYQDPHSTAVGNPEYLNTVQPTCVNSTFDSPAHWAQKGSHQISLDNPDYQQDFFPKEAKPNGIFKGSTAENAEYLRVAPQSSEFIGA
Chain of EGFR L858R (P00533 25-1210 L858R): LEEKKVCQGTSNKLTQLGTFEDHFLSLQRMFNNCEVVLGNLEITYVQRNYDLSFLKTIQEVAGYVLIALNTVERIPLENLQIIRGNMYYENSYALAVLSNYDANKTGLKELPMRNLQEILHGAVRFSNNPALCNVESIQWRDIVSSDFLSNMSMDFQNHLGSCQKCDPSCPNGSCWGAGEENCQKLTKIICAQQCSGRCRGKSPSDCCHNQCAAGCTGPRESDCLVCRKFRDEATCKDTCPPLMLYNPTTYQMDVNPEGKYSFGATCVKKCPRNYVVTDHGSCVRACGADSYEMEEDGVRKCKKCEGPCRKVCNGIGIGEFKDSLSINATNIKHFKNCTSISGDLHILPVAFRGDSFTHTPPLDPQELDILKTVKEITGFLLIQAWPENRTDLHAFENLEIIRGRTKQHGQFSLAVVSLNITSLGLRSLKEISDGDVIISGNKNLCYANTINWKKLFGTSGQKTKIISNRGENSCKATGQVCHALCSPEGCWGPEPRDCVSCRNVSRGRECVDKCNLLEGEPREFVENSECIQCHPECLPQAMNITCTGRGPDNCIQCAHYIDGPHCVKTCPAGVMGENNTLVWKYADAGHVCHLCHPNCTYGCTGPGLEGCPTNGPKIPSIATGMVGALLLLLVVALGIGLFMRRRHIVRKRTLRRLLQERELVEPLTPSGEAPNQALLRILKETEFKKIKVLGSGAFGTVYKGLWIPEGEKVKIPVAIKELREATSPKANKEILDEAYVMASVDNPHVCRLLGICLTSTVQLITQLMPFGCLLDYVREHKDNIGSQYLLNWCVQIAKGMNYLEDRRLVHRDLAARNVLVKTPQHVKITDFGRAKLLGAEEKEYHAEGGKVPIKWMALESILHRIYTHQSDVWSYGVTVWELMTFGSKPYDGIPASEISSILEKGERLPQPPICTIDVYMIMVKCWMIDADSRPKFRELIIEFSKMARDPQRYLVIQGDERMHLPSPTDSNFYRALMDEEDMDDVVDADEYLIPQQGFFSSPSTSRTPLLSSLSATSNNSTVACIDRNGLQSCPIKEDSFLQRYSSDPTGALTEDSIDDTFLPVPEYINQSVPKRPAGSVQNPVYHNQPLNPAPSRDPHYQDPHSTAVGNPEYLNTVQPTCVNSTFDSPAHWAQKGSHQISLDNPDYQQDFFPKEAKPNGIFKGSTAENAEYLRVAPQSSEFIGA

## O=C1CC[C@@H](Nc2ccc(C3CCN(CC(=O)N4CCC(Oc5ccc(-c6cc(F)c7c(c6)C(=O)N(C(C(=O)Nc6nccs6)c6ncn8c6CCC8)C7)cc5)CC4)CC3)cc2)C(=O)N1 (stereo partly drawn) [Compound 33, 2-(6,7-dihydro-5H-pyrrolo[1,2-c]imidazol-1-yl)-2-[6-[4-[[1-[2-[4-[4-[[(3R)-2,6-dioxo-3-piperidyl]amino]phenyl]-1-piperidyl]acetyl]-4-piperidyl]oxy]phenyl]-4-fluoro-1-oxo-isoindolin-2-yl]-N-thiazol-2-yl-acetamide]
EGFR L858R
  DC50: < 50 nM
EGFR L858R-T790M; Table 9A
  DC50: < 50 nM
EGFR L858R-T790M-C797S; [1]
  DC50: < 50 nM

## O=C1CCC(Nc2ccc(C3CCN(CC(=O)N4CCN(c5ccc(-c6cc(F)c7c(c6)C(=O)N(C(C(=O)Nc6nccs6)c6ncn8c6CCC8)C7)cc5)CC4)CC3)cc2)C(=O)N1 (stereo not drawn) [Compound 55, 2-(6,7-dihydro-5H-pyrrolo[1,2-c]imidazol-1-yl)-2-[6-[4-[4-[2-[4-[4-[(2,6-dioxo-3-piperidyl)amino]phenyl]-1-piperidyl]acetyl]piperazin-1-yl]phenyl]-4-fluoro-1-oxo-isoindolin-2-yl]-N-thiazol-2-yl-acetamide]
EGFR L858R
  DC50: < 50 nM
EGFR L858R-T790M; Table 9A
  DC50: < 50 nM
EGFR L858R-T790M-C797S; [1]
  DC50: < 50 nM

## N#Cc1cc(NC2CCC(=O)NC2=O)ccc1C1CCN(CC(=O)N2CCC(Oc3ccc(-c4cc(F)c5c(c4)C(=O)N(C(C(=O)Nc4nccs4)c4ncn6c4CCC6)C5)cc3)CC2)CC1 (stereo not drawn) [Compound 37]
EGFR L858R
  DC50: < 50 nM
EGFR L858R-T790M; Table 9A
  DC50: < 50 nM
EGFR L858R-T790M-C797S; [1]
  DC50: < 50 nM

## Cn1nc(N2CCC(=O)NC2=O)c2ccc(C3CCN(CC(=O)N4CCN(c5ccc(-c6cc(F)c7c(c6)C(=O)N(C(C(=O)Nc6nccs6)c6ncn8c6CCC8)C7)cc5)CC4)CC3)cc21 (stereo not drawn) [Compound 17, 2-(6,7-dihydro-5H-pyrrolo[1,2-c]imidazol-1-yl)-2-(6-(4-(4-(2-(4-(3-(2,4-dioxotetrahydropyrimidin-1(2H)-yl)-1-methyl-1H-indazol-6-yl)piperidin-1-yl)acetyl)piperazin-1-yl)phenyl)-4-fluoro-1-oxoisoindolin-2-yl)-N-(thiazol-2-yl)acetamide]
EGFR L858R
  DC50: < 50 nM
EGFR L858R-T790M; Table 9A
  DC50: < 50 nM
EGFR L858R-T790M-C797S; [1]
  DC50: < 50 nM

## O=C1CCC(Nc2ccc(C3CCN(CC(=O)N4CCC(Oc5ccc(-c6cc(F)c7c(c6)C(=O)N(C(C(=O)Nc6nccs6)c6ncn8c6CCC8)C7)cc5)CC4)CC3)cc2F)C(=O)N1 (stereo not drawn) [Compound 34, 2-(6,7-dihydro-5H-pyrrolo[1,2-c]imidazol-1-yl)-2-(6-(4-((1-(2-(4-(4-((2,6-dioxopiperidin-3-yl)amino)-3-fluorophenyl)piperidin-1-yl)acetyl)piperidin-4-yl)oxy)phenyl)-4-fluoro-1-oxoisoindolin-2-yl)-N-(thiazol-2-yl)acetamide]
EGFR L858R
  DC50: < 50 nM
EGFR L858R-T790M; Table 9A
  DC50: 50 to 150 nM
EGFR L858R-T790M-C797S; [1]
  DC50: < 50 nM

## O=C1CCC(Nc2ccc(C3CCN(CC(=O)N4CCN(c5ccc(-c6cc(F)c7c(c6)C(=O)N(C(C(=O)Nc6nccs6)c6ncn8c6CCC8)C7)cc5)CC4)CC3)c(C(F)F)c2)C(=O)N1 (stereo not drawn) [Compound 15, 2-[6-[4-[4-[2-[4-[2-(difluoromethyl)-4-[(2,6-dioxo-3-piperidyl)amino]phenyl]-1-piperidyl]acetyl]piperazin-1-yl]phenyl]-4-fluoro-1-oxo-isoindolin-2-yl]-2-(6,7-dihydro-5H-pyrrolo[1,2-c]imidazol-1-yl)-N-thiazol-2-yl-acetamide]
EGFR L858R
  DC50: < 50 nM
EGFR L858R-T790M; Table 9A
  DC50: < 50 nM
EGFR L858R-T790M-C797S; [1]
  DC50: < 50 nM

## O=C1CC[C@H](Nc2ccc(C3CCN(CC(=O)N4CCC(Oc5ccc(-c6cc(F)c7c(c6)C(=O)N(C(C(=O)Nc6nccs6)c6ncn8c6CCC8)C7)cc5)CC4)CC3)cc2)C(=O)N1 (stereo partly drawn) [Compound 32, 2-(6,7-dihydro-5H-pyrrolo[1,2-c]imidazol-1-yl)-2-[6-[4-[[1-[2-[4-[4-[[(3S)-2,6-dioxo-3-piperidyl]amino]phenyl]-1-piperidyl]acetyl]-4-piperidyl]oxy]phenyl]-4-fluoro-1-oxo-isoindolin-2-yl]-N-thiazol-2-yl-acetamide]
EGFR L858R
  DC50: < 50 nM
EGFR L858R-T790M; Table 9A
  DC50: < 50 nM
EGFR L858R-T790M-C797S; [1]
  DC50: < 50 nM

## O=C1CCC(Nc2ccc(C3CCN(CC(=O)N4CC5(C4)CN(c4ccc(-c6cc(F)c7c(c6)C(=O)N(C(C(=O)Nc6nccs6)c6ncn8c6CCC8)C7)cc4)C5)CC3)cc2)C(=O)N1 (stereo not drawn) [Compound 47, 2-(6,7-dihydro-5H-pyrrolo[1,2-c]imidazol-1-yl)-2-[6-[4-[2-[2-[4-[4-[(2,6-dioxo-3-piperidyl)amino]phenyl]-1-piperidyl]acetyl]-2,6-diazaspiro[3.3]heptan-6-yl]phenyl]-4-fluoro-1-oxo-isoindolin-2-yl]-N-thiazol-2-yl-acetamide]
EGFR L858R
  DC50: < 50 nM
EGFR L858R-T790M; Table 9A
  DC50: < 50 nM
EGFR L858R-T790M-C797S; [1]
  DC50: < 50 nM

## O=C1CCC(Nc2ccc(C3CCN(CC(=O)N4CCN(c5ccc(-c6cc(F)c7c(c6)C(=O)N(C(C(=O)Nc6ccccn6)c6ncn8c6CCC8)C7)cc5)CC4)CC3)cc2)C(=O)N1 (stereo not drawn) [Compound 19, 2-(6,7-dihydro-5H-pyrrolo[1,2-c]imidazol-1-yl)-2-(6-(4-(4-(2-(4-(4-((2,6-dioxopiperidin-3-yl)amino)phenyl)piperidin-1-yl)acetyl)piperazin-1-yl)phenyl)-4-fluoro-1-oxoisoindolin-2-yl)-N-(pyridin-2-yl)acetamide]
EGFR L858R
  DC50: < 50 nM
EGFR L858R-T790M; Table 9A
  DC50: 50 to 150 nM
EGFR L858R-T790M-C797S; [1]
  DC50: < 50 nM

## Cn1nc(N2CCC(=O)NC2=O)c2ccc(N3CCN(CC(=O)N4CCN(c5ccc(-c6cc(F)c7c(c6)C(=O)N(C(C(=O)Nc6nccs6)c6ncn8c6CCC8)C7)cc5)CC4)CC3)cc21 (stereo not drawn) [Compound 92, 2-(6,7-dihydro-5H-pyrrolo[1,2-c]imidazol-1-yl)-2-(6-(4-(4-(2-(4-(3-(2,4-dioxotetrahydropyrimidin-1(2H)-yl)-1-methyl-1H-indazol-6-yl)piperazin-1-yl)acetyl)piperazin-1-yl)phenyl)-4-fluoro-1-oxoisoindolin-2-yl)-N-(thiazol-2-yl)acetamide]
EGFR L858R-T790M; Table 9B
  DC50: < 50 nM
EGFR L858R-T790M-C797S; [2]
  DC50: < 50 nM

## Cn1nc(N2CCC(=O)NC2=O)c2ccc(C3CCN(CC(=O)N4CC5(C4)CN(c4ccc(-c6cc(F)c7c(c6)C(=O)N(C(C(=O)Nc6nccs6)c6ncn8c6CCC8)C7)cc4)C5)C4(CC4)C3)cc21 (stereo not drawn) [Compound 154, 2-(6,7-dihydro-5H-pyrrolo[1,2-c]imidazol-1-yl)-2-[6-[4-[2-[2-[7-[3-(2,4-dioxohexahydropyrimidin-1-yl)-1-methyl-indazol-6-yl]-4-azaspiro[2.5]octan-4-yl]acetyl]-2,6-diazaspiro[3.3]heptan-6-yl]phenyl]-4-fluoro-1-oxo-isoindolin-2-yl]-N-thiazol-2-yl-acetamide]
EGFR L858R-T790M; Table 9B
  DC50: < 50 nM
EGFR L858R-T790M-C797S; [2]
  DC50: < 50 nM

## Cn1nc(N2CCC(=O)NC2=O)c2ccc(C3CCN(CC(=O)N4CC5(C4)CN(c4ccc(-c6cc(F)c7c(c6)C(=O)N(C(C(=O)Nc6nccs6)c6ncn8c6CCC8)C7)cn4)C5)CC3(F)F)cc21 (stereo not drawn) [Compound 87, 2-(6,7-dihydro-5H-pyrrolo[1,2-c]imidazol-1-yl)-2-(6-(6-(6-(2-(4-(3-(2,4-dioxotetrahydropyrimidin-1(2H)-yl)-1-methyl-1H-indazol-6-yl)-3,3-difluoropiperidin-1-yl)acetyl)-2,6-diazaspiro[3.3]heptan-2-yl)pyridin-3-yl)-4-fluoro-1-oxoisoindolin-2-yl)-N-(thiazol-2-yl)acetamide]
EGFR L858R-T790M; Table 9B
  DC50: < 50 nM
EGFR L858R-T790M-C797S; [2]
  DC50: < 50 nM
